“Also recorded” adds a separate entry of the source.
How the values were obtained:
HSP90 = HSP90 (Homo sapiens, UniProt P07900); test: HSP90 binding to ATP-agarose beads; details: increasing concentrations, FIG. 7
Description: Beads were washed with wash buffer and run on 4-12% SDS-PAGE. Bound HSP90 was detected by western blotting with anti-HSP90 monoclonal antibody.

IP6K2-HSP90 binding [1] = molecular target: IP6K2-HSP90 binding (Homo sapiens, UniProt P07900); test: Co-immunoprecipitation of HSP90 with IP6K2 from drug-treated cells; type: cell-based; details: for effect on IP6K2-HSP90 binding, coimmunoprecipitation: HEK 293 cells; for effect on binding of HSP90 with IP6K2, coimmunoprecipitation: myc-IP6K2-transfected HeLa cells, CP 30 overnight, NB 500 μM overnight, ST 1 μM 6 h, AAG 1 μM overnight
Protocol: (§1) FIG. 3A, 3B, 3C. […] FIG. 3E.
Cell culture: HeLa and HEK 293 were cultured as described (18). […] HEK293 and HeLa cells were transiently transfected using polyfect transfection reagent (Qiagen). siRNAs were transfected with ‘Hiperfect’ transfection reagent (Qiagen).
Co-immunoprecipitation: Cells/mouse brain were homogenised in lysis buffer (20 mM Tris pH 7.4, 150 mM NaCl, 0.5% NP-40, and protease inhibitor cocktails). Equal amounts of protein were immunoprecipitated at 4° C. overnight using the protein A/G agarose beads in the presence of antibody. After immunoprecipitation, beads were washed four times with lysis buffer. Co-immunoprecipitates were resolved by SDS-PAGE and analysed by western blotting.

IP6K2 [2] = test: Intracellular localization of IP6K2 (nuclei isolation, fluorescence microscopy); type: cell-based; details: for effect on intracellular localization of IP6K2: drug-treated cells; for effect on nuclear vs cytosolic myc-IP6K2, nuclei isolation and densitometry: 60 μg total protein per lane, anti-myc blot
Protocol: FIG. 4A-4F. HSP90 regulates intracellular localization of IP6K2. FIG. 4A. […] Following drug treatment, nuclei were isolated from the rest of the cytoplasm. In each lane, 60 μg of total protein was loaded and the localization of IP6K2 assessed with an anti-myc antibody. Bands were analyzed by densitometry and changes in localization were calculated with the basal distribution of IP6K2 as a control. […] FIG. 4B. GFP-IP6K2 stably expressed in HEK 293 cells is distributed to a similar extent in cytosol and nucleus. Cells were stained with Hoechst stain for nucleus. FIG. 4C. Overexpression of pDSRed-HSP90 in HEK293 stably expressing GFP-IP6K2 retains IP6K2 completely in the cytosol. HSP90 also co-localizes well with IP6K2 as indicated by the yellow color of the merged picture. FIG. 4D. […] FIG. 4E. […] Cells overexpressing HSP90 (arrow a) display co-localization of IP6K2-HSP90 in the cytosol, whereas in cells lacking overexpressed HSP90 (arrow b), IP6K2 is nuclear. FIG. 4F. Effects of HSP90 depletion on intracellular localization of IP6K2. In HeLa, cells transiently expressed GFP-IP6K2 occurs diffusely throughout cells. Depletion of HSP90 by RNAi (depletion is 100% as shown in FIG. 6), leads to nuclear accumulation of IP6K2.
Isolation of nuclei: Nuclei were separated from other cytoplasmic components using commercial kits (See ‘Reagents’ section). Preparation was checked each time by running appropriate controls for nucleus (p84).
Fluorescence microscopy: HeLa cells were transfected with pEGFP+IP6K1/IP6K2/IP6K3, either alone or with pDsRed HSP90α with or without drug or siRNA treatment, fixed with ice cold methanol, stained with Hoechst stain for nucleus and observed under an Ultraview1 confocal microscope.

HeLa cells [3] = test: Cell death / survival (MTT assay) with IP6K2 overexpression; type: cell-based; details: HeLa cells transfected with IP6K2
Description: (§2) FIG. 5A. […] FIG. 5B. […] FIG. 5C. […] FIG. 5D. […] FIG. 5E.

HeLa cells [4] = details: reference 10; cited from earlier work
IP6K2 [5] = test: IP7 measurement in vivo (IP6K activity as IP7/IP6 ratio in [3H]inositol labeled cells); details: HeLa cells with or without overexpression of IP6K2
IP6K2-HSP90 binding [6] = molecular target: T1, IP6K2-HSP90 binding; test: In vitro HSP90-IP6K2 binding assay with purified proteins; set-up: species or system human; details: purified proteins; 250 nM HSP90 from HeLa preincubated with drug 30 min 37° C., then myc-IP6K2 beads; western blot; read-out: concentration reducing IP6K2-HSP90 binding by 50%
T1 construct: other: purified proteins; 250 nM HSP90 from HeLa preincubated with d
Description: as §1

HeLa cells [7] = test: Cell death (% apoptotic nuclei) in IP6K2 siRNA depleted cells; type: cell-based; details: IP6K2 RNA interference (~40% less IP7 formation)
Description: as §2

IP6K2-HSP90 binding [8] = test: In vitro HSP90-IP6K2 binding assay with purified proteins; set-up: species or system human; details: data not shown
Description: as §1

IP6K2-HSP90 binding [9] = molecular target: T2, IP6K2-HSP90 binding (Homo sapiens, UniProt Q9UHH9); test: as above; details: IP6K2 preincubated with increasing concentrations of IP6 15 min, then HSP90 1 h
T2 construct: purified endogenous HSP90 (HeLa); made in house; host or cells: HSP90 purified from HeLa cells (endogenous); myc-IP6K2 immunoprecipitated from transfected HEK 293 cells
T2 sequence (Q9UHH9 1-426): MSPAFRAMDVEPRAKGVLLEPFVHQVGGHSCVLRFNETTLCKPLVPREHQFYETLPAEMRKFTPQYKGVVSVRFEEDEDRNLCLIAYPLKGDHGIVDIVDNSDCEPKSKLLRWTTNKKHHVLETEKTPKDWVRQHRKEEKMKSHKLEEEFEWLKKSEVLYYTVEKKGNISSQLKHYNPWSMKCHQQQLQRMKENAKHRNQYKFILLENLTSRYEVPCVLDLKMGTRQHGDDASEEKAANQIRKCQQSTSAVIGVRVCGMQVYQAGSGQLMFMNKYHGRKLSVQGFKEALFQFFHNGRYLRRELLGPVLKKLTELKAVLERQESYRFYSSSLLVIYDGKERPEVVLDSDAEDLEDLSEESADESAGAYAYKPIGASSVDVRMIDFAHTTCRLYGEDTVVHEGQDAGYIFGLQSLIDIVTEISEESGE
Description: as §1

Row | Compound | effect on IP6K2-HSP90 binding, coimmunoprecipitation (IP6K2-HSP90 binding [1]) | effect on binding of HSP90 with IP6K2, coimmunoprecipitation (IP6K2-HSP90 binding [1]) | effect on intracellular localization of IP6K2 (IP6K2 [2]) | change of drug's apoptotic action on IP6K2 overexpression (HeLa cells [3]) | effect on IP6K2 activity / IP7 formation in cells (IP6K2 [5]) | IC50 (IP6K2-HSP90 binding [6]) [µM] | change of drug-elicited cell death in IP6K2 depleted cells (HeLa cells [7]) | effect on nuclear vs cytosolic myc-IP6K2, nuclei isolation and densitometry (IP6K2 [2]) | also measured
1 | CN[C@@H]1C[C@H]2O[C@@](C)([C@@H]1OC)n1c3ccccc3c3c4c(c5c6ccccc6n2c5c31)C(=O)NC4 [staurosporine] | diminish IP6K2-HSP90 binding | disrupt the binding of HSP90 with IP6K2 | elicits mitochondrial translocation of IP6K2 | markedly enhanced by IP6K2 overexpression | augmented IP6K2 activity |  |  |  | effect on HSP90 binding to ATP-agarose beads (HSP90): inhibits binding of HSP90 to ATP-agarose beads in a concentration dependent manner; change of drug's apoptotic effects on IP6K2 depletion, previously reported (HeLa cells [4]): IP6K2 depletion prevents the apoptotic effects; effect on IP6K2 activity / IP7 formation in cells (IP6K2 [5]; listed as ST): increase IP6K activity
2 | N.N.[Cl][Pt][Cl] [cisplatin] | diminish IP6K2-HSP90 binding | disrupt the binding of HSP90 with IP6K2 | enhance nuclear levels of IP6K2 | markedly enhanced by IP6K2 overexpression | augmented IP6K2 activity | 1 to 5 | reduced by almost half |  | effect on IP6K2 activity / IP7 formation in cells (IP6K2 [5]; listed as CP): increase IP6K activity
3 | p23: a co-chaperone which binds HSP90 with high affinity |  |  |  |  |  |  |  |  | effect of p23 on in vitro IP6K2-HSP90 binding (IP6K2-HSP90 binding [8]): only influences in vitro IP6K2-HSP90 binding at a high molar ratio (1:20); effect of p23 on IP6K2-HSP90 coprecipitation (IP6K2-HSP90 binding [1]; HeLa cells, data not shown): does not affect their coprecipitation in HeLa cells
4 | CO[C@@H]1[C@@H](OC(N)=O)[C@@H](O)[C@H](Oc2ccc3c(O)c(NC(=O)c4ccc(O)c(CC=C(C)C)c4)c(=O)oc3c2C)OC1(C)C [novobiocin] |  |  | enhance nuclear levels of IP6K2 | markedly enhanced by IP6K2 overexpression | augmented IP6K2 activity | ~200 | reduced by almost half | increases nuclear and decreases cytosolic IP6K2 | effect on IP6K2 activity / IP7 formation in cells (IP6K2 [5]; listed as NB): increase IP6K activity
5 | C=CCNC1=C2C[C@@H](C)C[C@H](OC)[C@H](O)[C@@H](C)/C=C(\C)[C@H](OC(N)=O)[C@@H](OC)/C=C\C=C(/C)C(=O)NC(=CC1=O)C2=O [AAG, 17-aminoallyl geldanamycin] |  |  | increases IP6K2 localization in the cytosol | unaffected by IP6K2 overexpression | diminishes IP6K activity; also recorded: less IP7 formation |  | unaffected by IP6K2 depletion | elicits the opposite effect | 
6 | O=P(O)(O)O[C@H]1[C@H](OP(=O)(O)O)[C@@H](OP(=O)(O)O)[C@H](OP(=O)(O)O)[C@@H](OP(=O)(O)O)[C@H]1OP(=O)(O)O [IP6] |  |  |  |  |  |  |  |  | effect of IP6 on in vitro binding of HSP90 to myc IP6K2 (IP6K2-HSP90 binding [9]): abolished

Source: US8080367B2, “Regulation of cell survival by HSP90 and IP6K2” (The Johns Hopkins University, priority 2006, dated 2011)
